Reference: PMC12563652 (International Journal of Molecular Sciences, 2025)
“Also recorded” adds a separate entry of the source.

How the values were obtained:
[1] = system: Danio rerio larvae; test: Nile red fluorescence fat metabolism assay in zebrafish larvae; type: in vivo; conditions: 10 µg/mL, 48 h incubation of larvae
Experimental: The study was conducted based on the method described earlier by Jones et al.. Starting at 3 days after fertilization (dpf), larvae were placed into 6-well plates and incubated with the test solutions (compounds in E3: JP-14 at a concentration of 10 μg/mL or resveratrol or E3 alone) for 48 h. Resveratrol solution (20 μg/mL) was used as the reference compound. After 24 h, the solutions were replaced with new ones containing Nile red dye (9-diethylamino-5H-benzo[α]phenoxazine-5-one, Pol-aura, Poland) at a concentration of 100 ng/mL. Nile red is a selective fluorescent lipid dye used to stain lipid droplets. Incubation with the dye was therefore 24 h. Stock solution of Nile red was prepared earlier by dissolving it in acetone to a concentration of 500 μg/mL. After the incubation period, the larvae were rinsed 3 times with 0.1 M phosphate-buffered, pH 7.4 (PBS, Sigma-Aldrich, Schnelldorf, Germany) and anesthetized with cold […] tricaine solution (Sigma-Aldrich, Schnelldorf, Germany). Next, they were visualized under a fluorescence microscope (Zeiss.Discovery.V8, Zeiss, Oberkochen, Germany) and analyzed with ImageJ FIJI program (version 2.17.0).

[2] = system: 3T3-L1 cell line; test: Cell viability assay (PrestoBlue, metabolic function), 3T3-L1; type: cell-based, mouse; conditions: 24 h, mean
Experimental: Prior to investigating the biological activity and molecular characteristics of the test compounds in vitro, a comprehensive cytotoxicity screening was performed using HepG2 and 3T3-L1 cell lines. Two complementary assays were applied: one based on the quantification of adenylate kinase release as an indicator of cell membrane damage, and another relying on resazurin reduction to assess cellular metabolic activity. These complementary assays enable sensitive and reliable detection of cytotoxic effects across diverse cell types. This preliminary assessment was carried out to ensure that subsequent functional analyses would not be confounded by nonspecific cytotoxic effects.
Cell viability was measured using PrestoBlue reagent (Thermo Fisher Scientific, Waltham, MA, USA), following the manufacturer’s instructions. After 24 h of compound treatment, PrestoBlue reagent was added to each well at 10% of the remaining medium volume. The plate was incubated at 37 °C for 15 min, and fluorescence was measured using the POLARstar Omega plate reader (excitation 530 nm, emission 580 nm). Results were expressed as a percentage of viable cells relative to the DMSO-treated control.

[3] = molecular target: T1, 5-HT2C serotoninergic receptor (Homo sapiens, UniProt P28335); test: 5-HT2C intrinsic activity, antagonist mode (AequoScreen calcium mobilization); type: cell-based; conditions: n.a. = no activity at 10–5 M
T1 sequence (P28335 33-458): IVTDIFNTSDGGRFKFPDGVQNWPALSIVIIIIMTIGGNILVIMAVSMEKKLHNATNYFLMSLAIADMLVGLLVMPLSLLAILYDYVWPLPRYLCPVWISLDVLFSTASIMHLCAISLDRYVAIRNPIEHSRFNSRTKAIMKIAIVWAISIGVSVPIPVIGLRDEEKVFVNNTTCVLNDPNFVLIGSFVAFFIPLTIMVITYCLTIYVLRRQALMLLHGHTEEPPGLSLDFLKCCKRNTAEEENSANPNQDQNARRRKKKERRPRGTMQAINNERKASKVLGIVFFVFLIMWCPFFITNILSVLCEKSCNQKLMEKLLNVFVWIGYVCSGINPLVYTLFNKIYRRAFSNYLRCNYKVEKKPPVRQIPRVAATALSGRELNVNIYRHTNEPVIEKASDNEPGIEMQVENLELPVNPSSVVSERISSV
Experimental: (§1) The determination of intrinsic activity will be performed in accordance with the manufacturer’s Aequoscreen methodology—Perkin Elmer.
The cell density in the 96-well format was 5000 cells per well. Cell preparation for the assay was performed according to the manufacturer’s instructions for AequoScreen (PerkinElmer, Waltham, MA, USA). […] The cells suspension was applied onto the ligands with the injectors of the POLARstar optima reader (BMG Labtech, Ortenberg, Germany). […] The concentration and dilution series having four replicates were prepared as instructed in the AequoScreen Starter Kit Manual (PerkinElmer, Waltham, MA, USA). The wells received cell injections along with either the standard agonist or the compounds being evaluated, while the POLARstar optima reader documented the emitted light over a duration of 20 s. In the antagonist evaluation, cells were administered (50 μL) into the assay plate alongside antagonist solutions (50 μL). A single concentration of agonist (oxymetazoline) was injected (50 μL, final concentration EC80) into the preincubated (15–20 min) plate with cells and antagonist, and the emitted light was recorded for 20 s.

[4] = molecular target: T1, 5-HT2C serotoninergic receptor; test: 5-HT2C intrinsic activity, agonist mode (AequoScreen calcium mobilization); type: cell-based; conditions: n.a. = no activity at 10–5 M
Experimental: as §1
The cell density in the 96-well format was 5000 cells per well. Cell preparation for the assay was performed according to the manufacturer’s instructions for AequoScreen (PerkinElmer, Waltham, MA, USA). […] The cells suspension was applied onto the ligands with the injectors of the POLARstar optima reader (BMG Labtech, Ortenberg, Germany). […] The concentration and dilution series having four replicates were prepared as instructed in the AequoScreen Starter Kit Manual (PerkinElmer, Waltham, MA, USA). The wells received cell injections along with either the standard agonist or the compounds being evaluated, while the POLARstar optima reader documented the emitted light over a duration of 20 s. In the antagonist evaluation, cells were administered (50 μL) into the assay plate alongside antagonist solutions (50 μL).

[5] = molecular target: α1-adrenoceptor; test: Competitive radioligand binding, [3H]prazosin, rat cerebral cortex; conditions: n.a. = no activity at 10–5 M
Experimental: The competitive radioligand-binding assay assessed affinity for α1- and α2-adrenoceptors. Experiments were carried out in the rat cerebral cortex. […] The membrane preparation and assay technique followed the previously reported protocol. Radioactivity was measured using the MicroBeta2 scintillation counter (PerkinElmer, Kraków, Poland). The data was adjusted to match a single-site curve-fitting formula using Prism 8 (GraphPad Software, La Jolla, CA, USA), and the Ki values were estimated by means of the Cheng–Prusoff formula.

[6] = system: 3T3-L1 adipocytes; test: Steatosis, HCS LipidTOX imaging in 3T3-L1 adipocytes; type: cell-based, mouse
Experimental: The 3T3-L1 mouse embryonic fibroblast cell line (ATCC CRL-11605) was cultured according to the standard protocol in Dulbecco’s Modified Eagle Medium (DMEM) supplemented with 10% bovine calf serum, 100 µg/mL streptomycin, and 100 IU/mL penicillin, at 37 °C in a humidified atmosphere containing 5% CO2. Cells were seeded at a density of 10,000 cells/well in collagen type I–coated (10 µg/mL) 96-well plates and allowed to attach for 24 h. Differentiation was initiated by replacing the medium with induction medium composed of DMEM, 0.5 mM 3-isobutyl-1-methylxanthine (IBMX), 1 µM dexamethasone, and 10% fetal bovine serum (FBS). After 48 h (differentiation day 2), the medium was replaced with DMEM supplemented with 10% FBS and 10 µg/mL human recombinant insulin. After an additional 24 h, the medium was replaced with DMEM supplemented with 10% bovine calf serum, 100 µg/mL streptomycin, and 100 IU/mL penicillin. The medium was refreshed every 24 h for 10 consecutive days to allow full differentiation into adipocytes.
Lipid accumulation and phospholipidosis were evaluated using the HCS LipidTOX Phospholipidosis and Steatosis Detection Kit (Thermo Fisher Scientific). Cells were cultured in black, clear-bottom 96-well plates and treated as described. Next, cells were fixed with 4% paraformaldehyde (15 min), washed with PBS, and stained with LipidTOX Green Neutral Lipid Stain (for steatosis) and LipidTOX Red Phospholipidosis Detection Reagent, prepared according to the manufacturer’s instructions. Nuclei were counterstained with Hoechst 33342 (2 µg/mL). Image acquisition and quantitative analysis were performed using High Content Screening (HCS) technology on the ImageXpress XLS system (Molecular Devices). Lipid droplet and phospholipid content were quantified using automated image analysis pipelines.

[7] = system: platelet aggregation in rat whole blood; test: In vitro collagen-induced platelet aggregation in rat whole blood (impedance aggregometry); type: cell-based; conditions: 50–200 µM, collagen 1.6 µg/mL
Experimental: In vitro platelet aggregation assays were conducted using freshly collected whole blood from rats, utilizing the Multiplate platelet function analyzer (Roche Diagnostics, Mannheim, Germany)—a five-channel device that measures electrical impedance, following methods described previously. Upon stimulation, platelets adhere to and aggregate on dual metal sensors within the test cuvette, causing an increase in electrical resistance, which corresponds to the number of platelets attached to the electrodes.
Blood was collected from the carotid artery of the rat into tubes coated with hirudin (S-Monovette, Sarstedt, Germany). A volume of 300 μL of the anticoagulated blood was mixed with 300 μL of prewarmed isotonic saline that contained the test compound or a vehicle control (0.1% DMSO) and incubated at 37 °C for 3 min under continuous stirring. Aggregation was triggered by adding collagen (final concentration: 1.6 µg/mL). Platelet activity was monitored for 6 min. Multiplate V2.04 software calculated the area under the curve (AUC) for each measurement to determine average platelet response.

Compound: [H]/N=C(\N)NN=Cc1c(Cl)cncc1Cl [JP-14, (E)-2-((3,5-Dichloropyridin-4-yl)Methylene)Hydrazine-1-Carboximidamide]
- Nile red detectable fat [1]: decrease
- cellular metabolic function, percentage relative to control (live cells) ([2]; Table S5, 0.1 μM): 87%
- cellular metabolic function, percentage relative to control (live cells) ([2]; Table S5, 1 μM): 85%
- cellular metabolic function, percentage relative to control (live cells) ([2]; Table S5, 10 μM): 82%
- cellular metabolic function, percentage relative to control (live cells) ([2]; Table S5, 50 μM): 80%
- cellular metabolic function, percentage relative to control (live cells) ([2]; Table S5, 100 μM): 51%
- 5-HT2C Ant EC50 [3]: did not exhibit any measurable agonistic or antagonistic activity
- 5-HT2C Ago EC50 [4]: did not exhibit any measurable agonistic or antagonistic activity
- α1 Ki [5]: did not exhibit notable affinity
- effect on steatosis under TAAR1 blockade ([6]; 10 µM + RTI-7470-44 (40 nM)): abolished
- steatosis (neutral lipid accumulation) ([6]; 10 µM, vs vehicle): statistically significant decrease
- effect on collagen-induced platelet aggregation [7]: did not alter; also recorded: did not influence
